Assay results published in ChEMBL document CHEMBL5137027, “Discovery of quinazoline derivatives CZw-124 as a pan-TRK inhibitor with potent anticancer effects in vitro and in vivo” (Eur J Med Chem, 2022).

Legend:
[1] = molecular target: High affinity nerve growth factor receptor (Homo sapiens, UniProt P04629, G595R); assay: Inhibition of TRKA G595R mutant (unknown origin)
[2] = test system: KM12; assay: Antiproliferative activity against human KM12 cells assessed as inhibition of cell growth incubated for 72 hrs by CCK8 assay; type: functional, cell-based; settings: KM12, 72 h
[3] = test system: BaF3; assay: Antiproliferative activity against mouse BaF3 cells harboring TRKA G595R mutant assessed as inhibition of cell growth incubated for 72 hrs by CCK8 assay; type: functional, cell-based; settings: BaF3, 72 h
[4] = test system: BaF3; assay: Antiproliferative activity against mouse BaF3 cells harboring TRKA G667C mutant assessed as inhibition of cell growth incubated for 72 hrs by CCK8 assay; type: functional, cell-based; settings: BaF3, 72 h
[5] = test system: BaF3; assay: Antiproliferative activity against mouse BaF3 cells harboring TRKA F589L mutant assessed as inhibition of cell growth incubated for 72 hrs by CCK8 assay; type: functional, cell-based; settings: BaF3, 72 h
[6] = test system: MCF7; assay: Antiproliferative activity against human MCF7 cells assessed as inhibition of cell growth incubated for 72 hrs by CCK8 assay; type: functional, cell-based; settings: MCF7, 72 h
[7] = test system: THLE-2; assay: Antiproliferative activity against human THLE-2 cells assessed as inhibition of cell growth incubated for 72 hrs by CCK8 assay; type: functional, cell-based; settings: THLE-2, 72 h
[8] = Toxicity in nude BALB/c mouse xenografted with human KM12 cells assessed as changes in body weight at 40 mg/kg, po qd measured every 3 days for 14 days; type: organism-based; settings: in vivo, 336 h, time 14 day
[9] = test system: KM12; assay: Antitumor activity against human KM12 cells xenografted in nude BALB/c mouse assessed as tumor growth inhibition at 40 mg/kg, po qd measured every 3 days for 14 days; type: functional; settings: KM12, 336 h, time 14 day, read-out: TGI
[10] = test system: A549; assay: Antiproliferative activity against human A549 cells assessed as inhibition of cell growth incubated for 72 hrs by CCK8 assay; type: functional, cell-based; settings: A549, 72 h
[11] = molecular target: High affinity nerve growth factor receptor (Homo sapiens, UniProt P04629); assay: Inhibition of […] human TRKA (436 to 790 residues) expressed in baculovirus expression system using TK as substrate measured after 30 mins in presence of ATP by HTRF assay
[12] = Metabolic stability in human liver microsomes assessed as half life at 100 uM incubated for 60 mins under shaking condition in presence of NADPH by LC-MS/MS analysis; type: ADME, Microsome
[13] = Metabolic stability in human microsomes assessed as intrinsic clearance at 100 uM incubated for 60 mins under shaking condition in presence of NADPH by LC-MS/MS analysis; type: ADME, Microsome; settings: read-out: CLH
[14] = Metabolic stability in human liver microsomes assessed as compound remaining at 100 uM incubated for 60 mins under shaking condition in presence of NADPH by LC-MS/MS analysis; type: ADME, Microsome; settings: read-out: Stability
[15] = Metabolic stability in human liver microsomes assessed as compound remaining at 100 uM incubated for 60 mins under shaking condition in absence of NADPH by LC-MS/MS analysis; type: ADME, Microsome; settings: read-out: Stability

Sequence of High affinity nerve growth factor receptor (Homo sapiens, UniProt P04629) (P04629 whole entry, the tested form may be a part): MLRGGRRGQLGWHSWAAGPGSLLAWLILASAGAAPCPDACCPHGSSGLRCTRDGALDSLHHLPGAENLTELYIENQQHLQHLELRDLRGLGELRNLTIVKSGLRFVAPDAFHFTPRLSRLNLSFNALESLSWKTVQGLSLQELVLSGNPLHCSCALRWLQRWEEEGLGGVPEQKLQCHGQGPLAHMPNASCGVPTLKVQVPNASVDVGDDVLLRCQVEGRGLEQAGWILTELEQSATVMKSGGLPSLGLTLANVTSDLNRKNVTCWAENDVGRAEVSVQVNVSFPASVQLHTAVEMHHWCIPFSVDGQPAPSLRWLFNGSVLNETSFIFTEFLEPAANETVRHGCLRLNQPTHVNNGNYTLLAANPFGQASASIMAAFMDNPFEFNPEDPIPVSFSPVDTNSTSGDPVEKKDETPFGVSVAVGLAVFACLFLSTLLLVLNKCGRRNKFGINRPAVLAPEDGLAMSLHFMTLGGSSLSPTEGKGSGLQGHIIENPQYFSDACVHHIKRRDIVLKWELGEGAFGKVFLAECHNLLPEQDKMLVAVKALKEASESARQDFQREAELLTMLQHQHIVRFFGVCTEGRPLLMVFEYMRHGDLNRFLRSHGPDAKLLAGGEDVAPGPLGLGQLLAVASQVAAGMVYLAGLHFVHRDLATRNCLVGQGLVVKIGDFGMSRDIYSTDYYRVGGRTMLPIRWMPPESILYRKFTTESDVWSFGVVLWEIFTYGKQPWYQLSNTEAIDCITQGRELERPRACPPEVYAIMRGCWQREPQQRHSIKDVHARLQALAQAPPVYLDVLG
Sequence of High affinity nerve growth factor receptor (Homo sapiens, UniProt P04629, G595R) (P04629 33-796 G595R limits assumed): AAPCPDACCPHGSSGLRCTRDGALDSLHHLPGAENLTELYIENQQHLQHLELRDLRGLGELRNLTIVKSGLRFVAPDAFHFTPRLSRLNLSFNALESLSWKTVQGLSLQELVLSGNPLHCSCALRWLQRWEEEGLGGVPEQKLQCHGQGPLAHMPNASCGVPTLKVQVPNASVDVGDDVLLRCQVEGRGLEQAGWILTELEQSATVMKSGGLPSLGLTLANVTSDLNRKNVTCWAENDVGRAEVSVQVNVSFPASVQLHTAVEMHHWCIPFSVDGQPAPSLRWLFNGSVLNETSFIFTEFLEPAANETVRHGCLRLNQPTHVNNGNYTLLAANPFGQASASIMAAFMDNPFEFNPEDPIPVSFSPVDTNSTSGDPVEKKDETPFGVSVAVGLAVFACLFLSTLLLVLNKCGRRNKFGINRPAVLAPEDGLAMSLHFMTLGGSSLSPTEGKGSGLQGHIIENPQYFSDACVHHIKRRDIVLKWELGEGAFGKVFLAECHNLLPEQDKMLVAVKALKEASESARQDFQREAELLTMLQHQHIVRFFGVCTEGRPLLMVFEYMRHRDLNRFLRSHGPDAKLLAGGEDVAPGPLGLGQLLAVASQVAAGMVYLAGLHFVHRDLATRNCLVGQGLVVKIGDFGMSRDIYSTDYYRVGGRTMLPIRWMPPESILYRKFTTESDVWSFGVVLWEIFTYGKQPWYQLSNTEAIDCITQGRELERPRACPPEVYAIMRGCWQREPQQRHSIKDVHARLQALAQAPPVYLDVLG

SMILES: Cc1cc(C(=O)NC(C)(C)C)cc(C#Cc2ccc3c4c(oc3c2)C(C)(C)c2cc(NS(C)(=O)=O)ccc2C4=O)n1
- IC50 [1]: 3000 nM

SMILES: CC(C)Oc1cc(Nc2nc(N[C@@H](C)c3ccc(F)cn3)ncc2Cl)n[nH]1
- IC50 [2]: 21 nM
- IC50 [3]: 59 nM
- IC50 [4]: 130 nM
- IC50 [5]: 20 nM

SMILES: O=C(Nc1cnn2ccc(N3CCC[C@H]3c3cc(F)ccc3F)nc12)N1CC[C@@H](O)C1
- IC50 [2]: 7.1 nM
- IC50 [6]: > 100000 nM
- IC50 [7]: > 100000 nM
- IC50 [3]: 2200 nM
- IC50 [4]: 850 nM
- IC50 [5]: 260 nM
- Activity [8]: Non-Toxic
- inhibition in vivo at 40 mg/kg [9]: 78%
- IC50 [10]: > 100000 nM

SMILES: Fc1ccc(CNc2nc(Nc3cc(C4CC4)[nH]n3)c3ccc(Br)cc3n2)c(F)c1
- IC50 [11]: 150 nM

SMILES: Fc1ccc(CNc2nc(Nc3cc(-c4ccccc4)[nH]n3)c3ccccc3n2)c(F)c1
- IC50 [11]: 68 nM

SMILES: Cc1cc(Nc2nc(NCc3c(F)cccc3F)nc3ccccc23)n[nH]1
- IC50 [11]: 160 nM

SMILES: Cc1cc(Nc2nc(NCc3ccc(Br)cc3)nc3ccccc23)n[nH]1
- IC50 [11]: 180 nM

SMILES: Cc1cc(Nc2nc(NCc3cc(F)ccc3F)nc3ccccc23)n[nH]1
- IC50 [11]: 7.5 nM

SMILES: Fc1ccc(CNc2nc(Nc3cc(C4CC4)[nH]n3)c3ccccc3n2)c(F)c1
- IC50 [11]: 4.7 nM
- half-life at 100 µM [12]: 25.8 min
- microsomal CLint at 100 µM [13]: 53.7 µL/min/mg
- remaining at 1 h, 100 µM [14]: 19.3%
- remaining at 1 h, 100 µM [15]: 104%

SMILES: Cc1cc(Nc2nc(NCc3ccc(Cl)cc3)nc3ccccc23)n[nH]1
- IC50 [11]: 380 nM

SMILES: Cc1cc(Nc2nc(NCc3ccc(F)cc3F)nc3cc(Cl)ccc23)n[nH]1
- half-life at 100 µM [12]: 31.9 min
- microsomal CLint at 100 µM [13]: 43.5 µL/min/mg
- remaining at 1 h, 100 µM [14]: 28.1%
- remaining at 1 h, 100 µM [15]: 99.5%

SMILES: Cc1cc(Nc2nc(N3CCOCC3)nc3ccc(Cl)cc23)n[nH]1
- IC50 [11]: 350 nM

SMILES: Cc1ccc2c(Nc3cc(C)[nH]n3)nc(NCc3ccc(F)cc3F)nc2c1
- half-life at 100 µM [12]: 25.5 min
- microsomal CLint at 100 µM [13]: 54.3 µL/min/mg
- remaining at 1 h, 100 µM [14]: 20.2%
- remaining at 1 h, 100 µM [15]: 98.1%

SMILES: Cc1cc(Nc2nc(NCc3ccc(F)cc3)nc3ccccc23)n[nH]1
- IC50 [11]: 20 nM

SMILES: Cc1cc(Nc2nc(NCc3ccc(F)cc3F)nc3ccc(F)cc23)n[nH]1
- IC50 [11]: 44 nM

SMILES: Cc1ccc(CNc2nc(Nc3cc(C)[nH]n3)c3ccccc3n2)cc1
- IC50 [11]: 110 nM

SMILES: Fc1ccc(CNc2nc(Nc3cc(C4CC4)[nH]n3)c3ccc(C(F)(F)F)cc3n2)c(F)c1
- IC50 [11]: 17 nM
- IC50 [2]: 28 nM
- IC50 [6]: 9100 nM
- IC50 [7]: > 100000 nM
- IC50 [3]: 1100 nM
- IC50 [10]: 19000 nM

SMILES: Cc1cc(Nc2nc(NCc3ccc(F)cc3F)nc3cc(C(F)(F)F)ccc23)n[nH]1
- IC50 [11]: 57 nM
- half-life at 100 µM [12]: 50.9 min
- microsomal CLint at 100 µM [13]: 27.2 µL/min/mg
- remaining at 1 h, 100 µM [14]: 43.4%
- remaining at 1 h, 100 µM [15]: 98.3%

SMILES: Cc1cc(Nc2nc(NCc3ccc(C(F)(F)F)cc3)nc3ccccc23)n[nH]1
- IC50 [11]: 1400 nM

SMILES: C[C@@H]1CCc2ncc(F)cc2[C@H]2CCCN2c2ccn3ncc(c3n2)C(=O)N1 [SELITRECTINIB]
- IC50 [2]: 2.8 nM
- IC50 [3]: 18 nM
- IC50 [5]: 8.2 nM
